Columns and labels:
Format in all cases: in vivo
[1] = test system: Surinam grass (Brachiaria decumbens); experiment: Test B postemergence; settings: 13 to 15 days
In short: (§1)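 Pre: seeded pots sprayed, chemical in non-phytotoxic solvent/surfactant mix. Post: plants 2–18 cm, 1–4 leaf, same formulation. Greenhouse 13–15 d; visual % control vs untreated, 0–100 scale.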

[2] = test system: barnyardgrass (Echinochloa crus-galli); experiment: Test B postemergence; settings: 13 to 15 days
In short: as §1

[3] = test system: blackgrass (Alopecurus myosuroides); experiment: Test B postemergence; settings: 13 to 15 days
In short: as §1

[4] = test system: cocklebur (Xanthium strumarium); experiment: Test B postemergence; settings: 13 to 15 days
In short: as §1

corn (Zea mays) [5] = experiment: Test B postemergence; settings: 13 to 15 days
In short: as §1

[6] = test system: crabgrass (Digitaria sanguinalis); experiment: Test B postemergence; settings: 13 to 15 days
In short: as §1

[7] = test system: giant foxtail (Setaria faberii); experiment: Test B postemergence; settings: 13 to 15 days
In short: as §1

[8] = test system: lambsquarters (Chenopodium album); experiment: Test B postemergence; settings: 13 to 15 days
In short: as §1

[9] = test system: morning glory (Ipomoea hederacea); experiment: Test B postemergence; settings: 13 to 15 days
In short: as §1

[10] = test system: pigweed (Amaranthus retroflexus); experiment: Test B postemergence; settings: 13 to 15 days
In short: as §1

[11] = test system: velvetleaf (Abutilon theophrasti); experiment: Test B postemergence; settings: 13 to 15 days
In short: as §1

[12] = test system: wheat (Triticum aestivum); experiment: Test B postemergence; settings: 13 to 15 days
In short: as §1

wild oat (Avena fatua) = experiment: Test B postemergence; settings: 13 to 15 days
In short: as §1

[13] = test system: Surinam grass (Brachiaria decumbens); experiment: Test B preemergence; settings: scale 0 to 100, 0 no effect, 100 complete control
In short: as §1

[14] = test system: barnyardgrass (Echinochloa crus-galli); experiment: Test B preemergence; settings: scale 0 to 100, 0 no effect, 100 complete control
In short: as §1

[15] = test system: cocklebur (Xanthium strumarium); experiment: Test B preemergence; settings: scale 0 to 100, 0 no effect, 100 complete control
In short: as §1

corn (Zea mays) [16] = experiment: Test B preemergence; settings: scale 0 to 100, 0 no effect, 100 complete control
In short: as §1

[17] = test system: crabgrass (Digitaria sanguinalis); experiment: Test B preemergence; settings: scale 0 to 100, 0 no effect, 100 complete control
In short: as §1

[18] = test system: giant foxtail (Setaria faberii); experiment: Test B preemergence; settings: scale 0 to 100, 0 no effect, 100 complete control
In short: as §1

[19] = test system: lambsquarters (Chenopodium album); experiment: Test B preemergence; settings: scale 0 to 100, 0 no effect, 100 complete control
In short: as §1

[20] = test system: morning glory (Ipomoea hederacea); experiment: Test B preemergence; settings: scale 0 to 100, 0 no effect, 100 complete control
In short: as §1

[21] = test system: pigweed (Amaranthus retroflexus); experiment: Test B preemergence; settings: scale 0 to 100, 0 no effect, 100 complete control
In short: as §1

rice (Oryza saliva) = experiment: Test B preemergence; settings: scale 0 to 100, 0 no effect, 100 complete control
In short: as §1

[22] = test system: velvetleaf (Abutilon theophrasti); experiment: Test B preemergence; settings: scale 0 to 100, 0 no effect, 100 complete control
In short: as §1

[23] = Rate 125 g/ha, scale 0 (no effect) to 100 (complete control)
[24] = Rate 500 g/ha, scale 0 to 100, 0 is no effect, 100 is complete control

O=C1C(n2cc(Cl)c(C3CC3)n2)CCN1c1cccc(C(F)(F)F)c1 (stereo not shown) [Compound 12]
Plant response rating, Surinam grass [1, 23]: 0
Plant response rating, Surinam grass [1, 24]: 0
Plant response rating, Barnyardgrass [2, 23]: 0
Plant response rating, Barnyardgrass [2, 24]: 0
Plant response rating, Blackgrass [3, 23]: 0
Plant response rating, Blackgrass [3, 24]: 0
Plant response rating, Cocklebur [4, 23]: 0
Plant response rating, Cocklebur [4, 24]: 0
Plant response rating, Corn (corn (Zea mays) [5]; [23]): 0
Plant response rating, Corn (corn (Zea mays) [5]; [24]): 0
Plant response rating, Crabgrass [6, 23]: 0
Plant response rating, Crabgrass [6, 24]: 0
Plant response rating, Foxtail, Giant [7, 23]: 0
Plant response rating, Foxtail, Giant [7, 24]: 0
Plant response rating, Lambsquarters [8, 23]: 0
Plant response rating, Lambsquarters [8, 24]: 0
Plant response rating, Morningglory [9, 23]: 0
Plant response rating, Morningglory [9, 24]: 0
Plant response rating, Pigweed [10, 23]: 0
Plant response rating, Pigweed [10, 24]: 0
Plant response rating, Velvetleaf [11, 23]: 0
Plant response rating, Velvetleaf [11, 24]: 0
Plant response rating, Wheat [12, 23]: 0
Plant response rating, Wheat [12, 24]: 0
Plant response rating, Wild Oat (wild oat (Avena fatua); [23]): 0
Plant response rating, Wild Oat (wild oat (Avena fatua); [24]): 0
Plant response rating, Surinam grass ([13]; Preemergence, Rate 500 g/ha): 0
Plant response rating, Surinam grass ([13]; preemergence, Rate 125 g/ha): 0
Plant response rating, Barnyardgrass ([14]; Preemergence, Rate 500 g/ha): 0
Plant response rating, Barnyardgrass ([14]; preemergence, Rate 125 g/ha): 0
Plant response rating, Cocklebur ([15]; Preemergence, Rate 500 g/ha): 0
Plant response rating, Cocklebur ([15]; preemergence, Rate 125 g/ha): 0
Plant response rating, Corn (corn (Zea mays) [16]; Preemergence, Rate 500 g/ha): 0
Plant response rating, Corn (corn (Zea mays) [16]; preemergence, Rate 125 g/ha): 0
Plant response rating, Crabgrass ([17]; Preemergence, Rate 500 g/ha): 0
Plant response rating, Crabgrass ([17]; preemergence, Rate 125 g/ha): 0
Plant response rating, Foxtail, Giant ([18]; Preemergence, Rate 500 g/ha): 0
Plant response rating, Foxtail, Giant ([18]; preemergence, Rate 125 g/ha): 0
Plant response rating, Lambsquarters ([19]; Preemergence, Rate 500 g/ha): 0
Plant response rating, Lambsquarters ([19]; preemergence, Rate 125 g/ha): 0
Plant response rating, Morningglory ([20]; Preemergence, Rate 500 g/ha): 0
Plant response rating, Morningglory ([20]; preemergence, Rate 125 g/ha): 0
Plant response rating, Pigweed ([21]; Preemergence, Rate 500 g/ha): 0
Plant response rating, Pigweed ([21]; preemergence, Rate 125 g/ha): 0
Plant response rating, Rice (rice (Oryza saliva); Preemergence, Rate 500 g/ha): 0
Plant response rating, Rice (rice (Oryza saliva); preemergence, Rate 125 g/ha): 0
Plant response rating, Velvetleaf ([22]; Preemergence, Rate 500 g/ha): 0
Plant response rating, Velvetleaf ([22]; preemergence, Rate 125 g/ha): 0

CC(C)(C)c1ccn(C2CCN(c3cccc(C(F)(F)F)c3)C2=O)n1 (stereo not shown) [Example 3, 3-[3-(1,1-dimethylethyl)-1H-pyrazol-1-yl]-1-[3-(trifluoromethyl)phenyl]-2-pyrrolidinone]
Plant response rating, Surinam grass [1, 23]: 0
Plant response rating, Surinam grass [1, 24]: 20
Plant response rating, Barnyardgrass [2, 23]: 0
Plant response rating, Barnyardgrass [2, 24]: 70
Plant response rating, Blackgrass [3, 23]: 0
Plant response rating, Blackgrass [3, 24]: 0
Plant response rating, Cocklebur [4, 23]: 0
Plant response rating, Cocklebur [4, 24]: 30
Plant response rating, Corn (corn (Zea mays) [5]; [23]): 0
Plant response rating, Corn (corn (Zea mays) [5]; [24]): 0
Plant response rating, Crabgrass [6, 23]: 0
Plant response rating, Crabgrass [6, 24]: 40
Plant response rating, Foxtail, Giant [7, 23]: 0
Plant response rating, Foxtail, Giant [7, 24]: 30
Plant response rating, Lambsquarters [8, 23]: 80
Plant response rating, Lambsquarters [8, 24]: 100
Plant response rating, Morningglory [9, 23]: 0
Plant response rating, Morningglory [9, 24]: 30
Plant response rating, Pigweed [10, 23]: 70
Plant response rating, Pigweed [10, 24]: 90
Plant response rating, Velvetleaf [11, 23]: 0
Plant response rating, Velvetleaf [11, 24]: 0
Plant response rating, Wheat [12, 23]: 0
Plant response rating, Wheat [12, 24]: 0
Plant response rating, Wild Oat (wild oat (Avena fatua); [23]): 0
Plant response rating, Wild Oat (wild oat (Avena fatua); [24]): 0
Plant response rating, Surinam grass ([13]; Preemergence, Rate 500 g/ha): 70
Plant response rating, Surinam grass ([13]; preemergence, Rate 125 g/ha): 40
Plant response rating, Barnyardgrass ([14]; Preemergence, Rate 500 g/ha): 100
Plant response rating, Barnyardgrass ([14]; preemergence, Rate 125 g/ha): 80
Plant response rating, Cocklebur ([15]; Preemergence, Rate 500 g/ha): 0
Plant response rating, Cocklebur ([15]; preemergence, Rate 125 g/ha): 0
Plant response rating, Corn (corn (Zea mays) [16]; Preemergence, Rate 500 g/ha): 30
Plant response rating, Corn (corn (Zea mays) [16]; preemergence, Rate 125 g/ha): 0
Plant response rating, Crabgrass ([17]; Preemergence, Rate 500 g/ha): 100
Plant response rating, Crabgrass ([17]; preemergence, Rate 125 g/ha): 70
Plant response rating, Foxtail, Giant ([18]; Preemergence, Rate 500 g/ha): 80
Plant response rating, Foxtail, Giant ([18]; preemergence, Rate 125 g/ha): 40
Plant response rating, Lambsquarters ([19]; Preemergence, Rate 500 g/ha): 100
Plant response rating, Lambsquarters ([19]; preemergence, Rate 125 g/ha): 100
Plant response rating, Morningglory ([20]; Preemergence, Rate 500 g/ha): 0
Plant response rating, Morningglory ([20]; preemergence, Rate 125 g/ha): 0
Plant response rating, Pigweed ([21]; Preemergence, Rate 500 g/ha): 100
Plant response rating, Pigweed ([21]; preemergence, Rate 125 g/ha): 100
Plant response rating, Velvetleaf ([22]; Preemergence, Rate 500 g/ha): 0
Plant response rating, Velvetleaf ([22]; preemergence, Rate 125 g/ha): 0

Source: patent US7138361B2, “Herbicidal heterocycles” (E. I. du Pont de Nemours and Company, priority 2000, dated 2006)
